Measured values as given in patent publication US7060822B1, “2-pyrazolin-5-ones” (Abbott GmbH & Co. KG, priority 1999, dated 2006).

SMILES | melting point
Cn1cc(C=C2C(=O)NN=C2c2cnccn2)c2ccc(C(=O)O)cc21 [Example 304, 4-[(6-Carboxy-1-methylindol-3-yl)methylene]-3-pyrazinyl-2-pyrazolin-5-one] | > 300 °C
CC(C)OC1=NNC(=O)C1=Cc1cc2ccccc2[nH]1 [Example 306, 4-[(Indol-2-yl)methylene]-3-isopropoxy-2-pyrazolin-5-one] | 221 to 223 °C
O=C1NN=C(CCc2ccc(O)cc2)C1=Cc1cc2ccccc2[nH]1 [Example 307, 3-(4-Hydroxyphenylethyl)-4-[(indol-2-yl)methylene]-2-pyrazolin-5-one] | 242 to 245 °C
Nc1ccc(CCC2=NNC(=O)C2=Cc2cc3ccccc3[nH]2)cc1 [Example 308, 3-(4-Aminophenylethyl)-4-[(indol-2-yl)methylene]-2-pyrazolin-5-one] | 187 to 189 °C
COC(=O)c1ccc(CCC2=NNC(=O)C2=Cc2cc3ccccc3[nH]2)cc1 [Example 309, 3-(4-Methoxycarbonylphenylethyl]-4-[(indol-2-yl)methylene]-2-pyrazolin-5-one] | 210 to 212 °C
NC(=O)c1ccc(CCC2=NNC(=O)C2=Cc2cc3ccccc3[nH]2)cc1 [Example 310, 3-(4-Carbamoylphenylethyl)-4-[(indol-2-yl)methylene]-2-pyrazolin-5-one] | 263 to 265 °C
O=C1NN=C(C2CC2)C1=Cc1cc2ccccc2[nH]1 [Example 311, 3-Cyclopropyl-4-[(indol-2-yl)methylene]-2-pyrazolin-5-one] | 238 to 240 °C
CN(C)Cc1c(C=C2C(=O)NN=C2C2CC2)[nH]c2ccccc12 [Example 312, 3-Cyclopropyl-4-[(3-dimethylaminomethylindol-2-yl)methylene]-2-pyrazolin-5-one] | 202 °C (dec.)
COc1ccc2[nH]c(C=C3C(=O)NN=C3OC(C)C)cc2c1 [Example 314, 3-Isopropoxy-4-[(5-methoxyindol-2-yl)methylene]-2-pyrazolin-5-one] | 219 to 220 °C
CC(C)OC1=NNC(=O)C1=Cc1cc2ccccc2n1C [Example 315, 3-Isopropoxy-4-[(1-methylindol-2-yl)methylene]-2-pyrazolin-5-one] | 254 to 255 °C
O=C1NN=C(C2CCOC2)C1=Cc1cc2ccccc2[nH]1 (stereo not shown) [Example 316, 4-[(Indol-2-yl)methylene]-3-(tetrahydrofuran-3-yl)-2-pyrazolin-5-one] | 180 to 183 °C
COc1ccc2[nH]c(C=C3C(=O)NN=C3C3CC3)cc2c1 [Example 317, 3-Cyclopropyl-4-[(5-methoxyindol-2-yl)methylene]-2-pyrazolin-5-one] | 221 to 224 °C
O=C1NN=C(C2CC2)C1=Cc1cc2cc([N+](=O)[O-])ccc2[nH]1 [Example 318, 3-Cyclopropyl-4-[(5-nitroindol-2-yl)methylene]-2-pyrazolin-5-one] | 316 to 320 °C
O=C1NN=C(CCc2ccc(C(=O)O)cc2)C1=Cc1cc2ccccc2[nH]1 [Example 320, 3-(4-Carboxyphenylethyl)-4-[(indol-2-yl)methylene]-2-pyrazolin-5-one] | > 300 °C
O=C1NN=C(c2ccccc2)C1=Cc1cc2ccccc2[nH]1 [Example 321, 4-[(Indol-2-yl)methylene]-3-phenyl-2-pyrazolin-5-one] | 210 to 211 °C
Cc1c(C=C2C(=O)NN=C2OC(C)C)[nH]c2ccccc12 [Example 322, 3-Isopropoxy-4-[(3-methylindol-2-yl)methylene]-2-pyrazolin-5-one] | 241 to 243 °C
COC(=O)C(Cc1c(C=C2C(=O)NN=C2OC(C)C)[nH]c2ccccc12)NC(C)=O (stereo not shown) [Example 323, 3-Isopropoxy-4-{[3-(2-methoxycarbonyl-2-acetamidoethyl)indol-2-yl]methylene}-2-pyrazolin-5-one] | 205 to 206 °C
CCOC1=NNC(=O)C1=Cc1cc2ccccc2[nH]1 [Example 324, 3-Ethoxy-4-[(indol-2-yl)methylene]-2-pyrazolin-5-one] | 265 to 267 °C
COc1ccc2[nH]c(C=C3C(=O)NN=C3c3cnccn3)cc2c1 [Example 327, 4-[(5-Methoxyindol-2-yl)methylene]-3-pyrazinyl-2-pyrazolin-5-one] | 272 to 274 °C
COc1ccc2[nH]c(C=C3C(=O)NN=C3c3ccccn3)cc2c1 [Example 328, 4-[(5-Methoxyindol-2-yl)methylene]-3-(2-pyridyl)-2-pyrazolin-5-one] | 170 to 172 °C
CCOC1=NNC(=O)C1=Cc1cc2c([nH]1)CCC=C2Cl [Example 329, 4-[(4-Chloro-6,7-dihydroindol-2-yl)methylene]-3-ethoxy-2-pyrazolin-5-one] | 177 to 203 °C
O=C1NN=C(c2cnccn2)C1=Cc1cc2c([nH]1)CCC=C2Cl [Example 330, 4-[(4-Chloro-6,7-dihydroindol-2-yl)methylene]-3-pyrazinyl-2-pyrazolin-5-one] | 206 to 209 °C
CCOC1=NNC(=O)C1=Cc1[nH]c2ccccc2c1CN(C)C [Example 332, 4-[(3-Dimethylaminomethylindol-2-yl)methylene]-3-ethoxy-2-pyrazolin-5-one] | 185 to 187 °C

SMILES | melting point
O=C1NN=C(Cc2ccccc2)C1=Cc1c[nH]c2ncccc12 [Example 333, 4-[(7-Azaindol-3-yl)methylene]-3-benzyl-2-pyrazolin-5-one] | 274 to 277 °C
O=C1NN=C(Cc2ccccc2)C1=Cc1cn(CCCCO)c2ncccc12 [Example 334, 3-Benzyl-4-{[1-(4-hydroxybutyl)-7-azaindol-3-yl]methylene}-2-pyrazolin-5-one] | 176 to 179 °C
COc1ccc(OCC2=NNC(=O)C2=Cc2c[nH]c3ncccc23)cc1 [Example 335, 4-[(7-Azaindol-3-yl)methylene]-3-(4-methoxyphenyloxymethyl)-2-pyrazolin-5-one] | 300 to 302 °C
CC(C)OC1=NNC(=O)C1=Cc1c[nH]c2ncccc12 [Example 336, 4-[(7-Azaindol-3-yl)methylene]-3-isopropoxy-2-pyrazolin-5-one] | 258 to 260 °C
NC1=NNC(=O)C1=Cc1c[nH]c2ncccc12 [Example 337, 3-Amino-4-[(7-azaindol-3-yl)methylene]-2-pyrazolin-5-one] | > 300 °C
COc1ccc(CC2=NNC(=O)C2=Cc2c[nH]c3ncccc23)cc1 [Example 338, 4-[(7-Azaindol-3-yl)methylene]-3-(4-methoxybenzyl)-2-pyrazolin-5-one] | 273 to 276 °C
O=C1NN=C(Nc2ccccc2)C1=Cc1c[nH]c2ncccc12 [Example 339, 4-[(7-Azaindol-3-yl)methylene]-3-phenylamino-2-pyrazolin-5-one] | 249 to 252 °C
Cc1ccc(CC2=NNC(=O)C2=Cc2c[nH]c3ncccc23)cc1 [Example 340, 4-[(7-Azaindol-3-yl)methylene]-3-(4-methylbenzyl)-2-pyrazolin-5-one] | > 300 °C
O=C1NN=C(CCc2ccc(O)cc2)C1=Cc1c[nH]c2ncccc12 [Example 341, 4-[(7-Azaindol-3-yl)methylene]-3-(4-hydroxyphenylethyl)-2-pyrazolin-5-one] | 270 to 272 °C
O=C1NN=C(CCc2ccc(O)cc2)C1=Cc1cn(CCCCO)c2ncccc12 [Example 342, 4-{[1-(4-Hydroxybutyl)-7-azaindol-3-yl]methylene}-3-(4-hydroxyphenylethyl)-2-pyrazolin-5-one] | 211 to 212 °C
CC(C)C1=NNC(=O)C1=Cc1c[nH]c2ncccc12 [Example 343, 4-[(7-Azaindol-3-yl)methylene]-3-isopropyl-2-pyrazolin-5-one] | 300 °C (dec.)
O=C1NN=C(C2CC2)C1=Cc1c[nH]c2ncccc12 [Example 344, 4-[(7-Azaindol-3-yl)methylene]-3-cyclopropyl-2-pyrazolin-5-one] | 245 to 246 °C
O=C1NN=C(C2CCC2)C1=Cc1c[nH]c2ncccc12 [Example 345, 4-[(7-Azaindol-3-yl)methylene]-3-cyclobutyl-2-pyrazolin-5-one] | 300 to 302 °C
O=C1NN=C(c2ccccc2)C1=Cc1c[nH]c2ncccc12 [Example 347, 4-[(7-Azaindol-3-yl)methylene]-3-phenyl-2-pyrazolin-5-one] | 280 to 282 °C
O=C1NN=C(CCc2ccccc2)C1=Cc1c[nH]c2ncccc12 [Example 357, 4-[(7-Azaindol-3-yl)methylene]-3-phenylethyl-2-pyrazolin-5-one] | 317 to 319 °C
CN(C)c1ccc(C=C2C(=O)NN=C2Cc2ccccc2)cc1 [Example 358, 3-Benzyl-4-[(4-dimethylaminophenyl)methylene]-2-pyrazolin-5-one] | 253 to 255 °C
CC(C)OC1=NNC(=O)C1=Cc1ccc(N(C)C)cc1 [Example 359, 4-[(4-Dimethylaminophenyl)methylene]-3-isopropoxy-2-pyrazolin-5-one] | 197 to 198 °C
CN(C)c1ccc(C=C2C(=O)NN=C2CCc2ccccc2)cc1 [Example 360, 4-[(4-Dimethylaminophenyl)methylene]-3-phenylethyl-2-pyrazolin-5-one] | 224 to 225 °C
CN(C)c1ccc(C=C2C(=O)NN=C2C2CC2)cc1 [Example 361, 3-Cyclopropyl-4-[(4-dimethylaminophenyl)methylene]-2-pyrazolin-5-one] | 280 to 289 °C
Cc1n[nH]cc1C=C1C(=O)NN=C1OC(C)C [Example 362, 3-Isopropoxy-4-[(3-methylpyrazol-4-yl)methylene]-2-pyrazolin-5-one] | 228 to 230 °C
Cc1n[nH]cc1C=C1C(=O)NN=C1C1CC1 [Example 363, 3-Cyclopropyl-4-[(3-methylpyrazol-4-yl)methylene]-2-pyrazolin-5-one] | 265 to 267 °C
CC(C)OC1=NNC(=O)C1=Cc1ncc[nH]1 [Example 364, 4-[(Imidazol-2-yl)methylene]-3-isopropoxy-2-pyrazolin-5-one] | 212 to 214 °C
O=C1NN=C(C2CC2)C1=Cc1ncc[nH]1 [Example 365, 3-Cyclopropyl-4-[(imidazol-2-yl)methylene]-2-pyrazolin-5-one] | 264 to 266 °C
